How the values were obtained:
BI-1 (TMBIM6) = assay: TMBIM6-GCaMP3 fluorescence, calcium released through BI-1; format: cell-based; conditions: 10 μM, compared with DMSO control
[1] = Cell viability for BIA and analogues, HT1080 cell line; format: cell-based; conditions: human, HT1080 fibrosarcoma cells; for viability at 5 µM: HT1080, 5 uM; for viability at 10 µM: HT1080, 10 uM
Experimental: HT1080 MDA-MB-231, SKBR3 and MCF7 cell lines were cultured in a 37° C., 5% CO2 incubator in a medium with 10% Fetal Bovine Serum, 1% penicillin and streptomycin (100 U) added to DMEM.
(§1) The compound prepared in Example 15 was treated with HT1080 fibrosarcoma cell line at 5 μM and 10 μM and cell viability was measured. In addition, the compound prepared in Example 15 on the DU145 prostate cancer cell line was treated with 10 μM, 20 μM, and 30 μM and cell viability was measured (see Table 2, Table 3).

BAL inflammatory cells = assay: Aspergillus-infected asthmatic mouse model, BAL cells and lung histology; format: in vivo; conditions: asthma-inducing group; BIA 0.1 mg/kg and 0.01 mg/kg, IC87114 1 mg/kg, intratracheal
Source text: FIG. 80A and FIG. 80B show mice that were infected with aspergillus with or without BIA, or IC87114, fixing the tissue to 4% formalin, injecting paraffin to make blocks, and then cutting into 4 μm thick to react to buffer and performing hematoxylin-eosin staining. The observation result (A) and the observation result (B) by PAS staining are shown.
The result is quantified by counting the total number of cells of living BAL fluid, excluding dead cells stained in trypan blue.
A. fumigatus-induced allergic pulmonary inflammation To establish the model, mice were treated with 10 μg of A. fumigatus crude antigen extract (Greer Laboratories, Cat # XPM3D3A4, Lenoir, NC, USA) with fungal substance inactivated. 0.2 ml of incomplete Freund's adjuvant (Sigma-Aldrich, Cat # F5506-6X) in regular saline It was dissolved and mixed, and half of the preparation was deposited in the peritoneal cavity and the rest was delivered subcutaneously. After 2 weeks, mice received 20 μg of A. fumigatus antigen dissolved in normal saline through the intranasal route, after an intranasal attack After 4 days, 20 μg of A. Fumigatus antigen dissolved in normal saline was treated via the endotracheal route. Control mice were administered only saline at the same time point in time through the same route and treated with the same number of conidia. […]

[2] = Cell viability for BIA and analogues, DU145 cell line; format: cell-based; conditions: human; for viability at 10 µM: DU145, 10 uM; for viability at 20 µM: DU145, 20 uM; for viability: DU145, 50 rpm
Experimental: as §1

SARS-CoV2 virus = assay: MTT cell viability of Vero E6 cells infected with SARS-CoV2; format: cell-based; conditions: Severe acute respiratory syndrome coronavirus 2, Vero C1008, 24 h, Vero E6, SARS-CoV2 0.1 MOI, 500 nM, 24 hours after treatment; control DMSO-S 66.52±2.28%
Experimental: Vero E6 cells, monkey kidney cell masters, were dispensed at 1×10^4 cells/well per well in 96 well plates and incubated at 37° C., 5% CO2 incubators for 24 hours. SARS-CoV2 to infect Vero E6 cells was S ARS-CoV 43326 distributed from the National Pathogen Resource Bank, and DMEM (2% FBS, 1% antibiotic-antimycotic) medium was dispensed at 100 μL/well to infect 0.1 MOI. For 1 hour The virus was removed after 1 hour of infection in a 37° C., 5% CO2 incubator.
Next, samples prepared so that BIA or analogue compounds were finally 500 nM were dispensed 100 μL/well, including the culture medium, and then treated in a 37° C., 5% CO2 incubator for 24 hours. In the same way, the group treated with 2 μM, 5 μM, or 10 μM of Remdesivir (Rem) was a positive control.
Check the condition of the cells, add 100 μL/well of 0.5 mg/ml MTT solution, react in a 37° C., 5% CO2 incubator for 4 hours, wash out the media, and DMSO to the cells by 100 μL/well After sufficient dissolution, absorbance was measured at 540 nm with a plate reader to evaluate cell viability.
To confirm the possibility of viral prevention and therapeutic effects of BIA and its analogue compounds, 500 nM treatment of BIA analogue at the same time as viral infection, and then MTT assay whether the viability of cells against viral infection is improved after 24 hours. The results confirmed are shown in the graph of FIG. 82.

[3] = tested on: AKT serine phosphorylation (S473); assay: AKT phosphorylation by Western blotting; format: cell-based; conditions: BIA analogues, 10 μM
Experimental: This is AKT signaling key to cancer cell growth, and BIA and its analogues tend to inhibit it. Only representative experimental results were presented. Data were expressed as mean±SD. After one-way ANOVA, Tukey's post hoc test is conducted.
After cell recovery, cell lytic buffer (10 mM Tris-Cl (pH 7.4), 5 mM EDTA, 130 mM NaCl, 1% Triton X-100) and protease inhibitor mix protease inhibitor cocktail (protease inhibitor cocktail and phosphatase inhibitor cocktail) were added and left at 4° C. for 30 minutes. After breaking the cells with ultrasound, they were centrifuged at 13,000× g at 4° C. for 30 minutes, and then the supernatant was taken, and the concentration was quantified using a protein quantification kit (Bio-Rad Laboratories, Hercules, CA, USA). 20 ug of the obtained protein was electrophoresis with polyacrylamide gel electrophoresis (SDS-PAGE) followed by electrotransfer to PVDF membrane (Bio-Rad). The membrane was blocked at room temperature for 1 hour with a TBS-T solution (20 mM Tris (pH 7.5), 137 mM NaCl, 0.05% Triton X-100) containing 5% skim milk. Then, after switching to a solution containing the primary antibody, it was reacted at 4° C. The membrane after the reaction was washed three times with TBS-T solution, reacted with a secondary antibody, and then luminesced using an ECL kit and autoradiography. […]

SMILES | inhibition of calcium release through BI-1 (TMBIM6-GCaMP3 fluorescence) (BI-1 (TMBIM6)) | viability at 5 µM [1] [%] | viability at 10 µM [1] [%] | all BAL inflammatory cells (BAL inflammatory cells) | viability at 10 µM [2] [%] | viability at 20 µM [2] [%] | viability [2] [%] | viability at 0.5 µM (SARS-CoV2 virus) [%] | AKT serine phosphorylation [3]
Nc1ccccc1C(=O)/C=C/c1cccc(F)c1 [GM-90318, (E)-1-(2-aminophenyl)-3-(3-fluorophenyl)prop-2-en-1-one] | stronger inhibitory effect | 21.4 | 11.8 |  |  |  |  |  | 
Cc1ccccc1-n1c(Cn2cnc3c(N)ncnc32)nc2cccc(C)c2c1=O [IC87114, reference compound] |  |  |  | inhibited |  |  |  |  | 
Nc1ccccc1C(=O)/C=C/c1cccc(C(=O)O)c1 [GM-90296, (E)-3-(3-(2-aminophenyl)-3-oxoprop-1-en-1-yl)benzoic acid] | stronger inhibitory effect | 107 | 91.6 |  | 91 | 82.3 | 76.9 |  | 
Nc1ccccc1C(=O)/C=C/c1ccncc1 [GM-90228, (E)-1-(2-aminophenyl)-3-(pyridin-4-yl)prop-2-en-1-one] |  | 30.4 | 22.8 |  | 54.1 | 37.8 | 15.1 | 74.3 ± 3.43 | 
COc1cc(N)c(C(=O)/C=C/c2cccc([N+](=O)[O-])c2)cc1OC [GM-90254, (E)-1-(2-amino-4,5-dimethoxyphenyl)-3-(3-nitrophenyl)prop-2-en-1-one] | stronger inhibitory effect | 14.7 | 8.59 |  | 61.1 | 31.5 | 8.51 |  | 
N/C(=N\O)c1cccc(/C=C/C(=O)c2ccccc2N)c1 [GM-90338, (Z)-3-((E)-3-(2-aminophenyl)-3-oxoprop-1-en-1-yl)-N′-hydroxy Benzimidamide] | stronger inhibitory effect | 44.7 | 10.5 |  | 42.8 | 31.9 | 11.1 |  | 
Nc1ccccc1C(=O)/C=C/c1cccc([N+](=O)[O-])c1 [GM-90129, (E)-1-(2-aminophenyl)-3-(3-nitrophenyl)prop-2-en-1-one] |  |  |  |  | 91.4 | 90.2 | 61.4 | 77.7 ± 3.6 | 
CC(C)(C)OC(=O)Nc1cccc(/C=C/C(=O)c2ccccc2N)c1 [GM-90299, tert-butyl (E)-(3-(3-(2-aminophenyl)-3-oxoprop-1-en-1-yl)phenyl) carbamate] | stronger inhibitory effect | 93.2 | 20.1 |  | 82.2 | 59 | 17.2 |  | 
Nc1ccc(F)cc1C(=O)/C=C/c1cccc([N+](=O)[O-])c1 [GM-90298, (E)-1-(2-amino-5-fluorophenyl)-3-(3-nitrophenyl)prop-2-en-1-one] | stronger inhibitory effect | 21.2 | 19 |  | 68.9 | 62.3 | 48.7 |  | 
CCOc1cccc(/C=C/C(=O)c2ccccc2N)c1 [GM-90295, (E)-1-(2-aminophenyl)-3-(3-ethoxyphenyl)prop-2-en-1-one] | stronger inhibitory effect | 103 | 82.4 |  | 91.7 | 86.7 | 84.7 |  | 
O=C(/C=C/c1cccc([N+](=O)[O-])c1)c1ccccc1O [GM-90135, (E)-1-(2-hydroxyphenyl)-3-(3-nitrophenyl)prop-2-en-1-one] |  | 99.9 | 96.8 |  | 88.5 | 87.3 | 64.5 |  | 
O=C(/C=C/c1cccc([N+](=O)[O-])c1)c1ccccc1 [GM-90128, (E)-3-(3-nitrophenyl)-1-phenylprop-2-en-1-one] |  | 102 | 57.8 |  | 81 | 72.2 | 62.2 |  | inhibited

Reference: patent publication US20240139125A1 (INDUSTRIAL COOPERATION FOUNDATION JEONBUK NATIONAL …, priority 2020, published 2024)
